The subject of series [1] is tail bleeding in mice. The note with it: mice treated with ASA, previously seen (Decouture et al. 2019); cited from earlier work.
Series [2] relates to human whole blood. The experiment in a line: VWF recovery experiment in 10 mM NAC treated blood, microfluidic system. Type of series: cell-based. The procedure: VWF recovery experiments were performed using 3 individual's 10 mM NAC samples prepped as detailed above. 19 IU/mL of VWF (Humate) was added to these samples and they were immediately perfused through the microfluidic system. Occlusion times and platelet intensities were measured as above.
To test if the NAC prevented arterial thrombosis by modifying VWF as hypothesized, new VWF was added to blood samples treated with 10 mM NAC. […] Although OTs of the recovery samples were higher than the control, the average RPA rates for the control and recovery conditions were similar. By shifting the control curve right, simulating a 76 s increase in lag time, the two curves show a high degree of concordance (FIG. 9).

The test system of series [3] is occlusive thrombi in common carotid artery of C57 mice. The experiment in a line: Murine modified-Folts model of arterial thrombosis (carotid stenosis and crush injury). Type of series: in vivo, mouse. Conditions: 200 mg/kg NAC 6 hrs prior and immediately prior to crush injury.
Series [4] is described as follows: Elimination of NAC from mouse plasma (literature). Conditions: calculated from half-life of 34 minutes. Type of series: in vivo.
The subject of series [5] is human whole blood. The experiment in a line: Occlusion time in a stenotic microfluidic model of arterial thrombosis. The series is classed as cell-based. The note with it: for Average occlusion time: 30 min incubation, shear ~7,500 s-1, untreated 124 s; for Occlusion time, weak NAC responders: 0 mM 112 s; for Occlusion time, strong NAC responders: 0 mM 136 s. An excerpt:
Microfluidic tests were run using a microfluidic system previously described (Griffin M T, et al. Inhibition of high shear arterial thrombosis by charged nanoparticles. Biomicrofluidics 2018;12). The chip contains a single inlet split into four outlet channels 475 μm wide and 250 μm tall. Within each outlet channel is a stenotic region 800 μm long where the height decreases to 70 μm. Flow is controlled using a hydraulic pressure head created by a raised reservoir connected to the inlet which generates an initial shear rate of ˜7,500 s-1 in the stenotic region. Channels are coated overnight with 100 μg/mL collagen Type I (Chrono-Log Corp) in 0.9% saline. Blood is filtered with a 37 μm nylon mesh immediately prior to testing to prevent debris from entering the chip.
(§1) For each chip, the mass flow rate of each outlet channel and brightfield images of two stenotic regions were acquired. Mass flow rates for each channel were measured using four mass balances (Ohaus Scout) connected to the device outlets. Occlusion time was defined as the difference between the time blood enters the stenosis region of the microfluidic device and the time when the mass balances register their peak mass. A brightfield, upright microscope (Leica DM6000B) was used in conjunction with a CCD camera (Pixelfly, PCO) to image the stenotic regions of the middle two channels as the occlusive thrombus formed. Images were taken once per second with a 40× magnification. These images were later thresholded into black and white images to identify platelet rich thrombi from the background blood (ImageJ). Average platelet intensity is defined as the average B/W value of the stenosis region. A value of 0 represents a clean channel with no platelets and increasing values indicate platelet accumulation.
(§2) Occlusion times for each concentration were tested using an unpaired Student's t-test. For survival curves, each possible combinations of pairs of concentrations were tested using a log-rank test. Visual measurement of platelet intensities for each concentration were compared using a Mann-Whitney U test. Statistical significance was determined by p<0.05.
Blood was collected from 10 healthy adult volunteers. Subjects were recruited in accordance with Georgia Institute of Technology's Institutional Review Board Guidelines (IRB #17315). Subjects with known bleeding disorders, a history of anti-platelet medications within 10 days of donation, anemia or transmittable blood disease were excluded from the study. Standard phlebotomy techniques were used to obtain blood. Briefly, 60 mL of blood was drawn slowly through a 21 G needle into a 60 ml syringe containing 0.21 mL of a 1000 USP/mL solution of heparin sodium (Fisher Scientific) in PBS to achieve a heparin concentration of […] in the collected blood. Complete Blood Counts (CBCs) were also performed on all donor samples. All tests were run within 4 hours of the blood draw.
(§3) N-acetyl cysteine was added to blood to create final concentrations of 3 mM, 5 mM and 10 mM. For each human subject, a fresh solution of concentrated NAC (Sigma Aldrich) was created in PBS and neutralized to a pH of 7 with NaOH. The concentrated NAC solution was then diluted so that the same volume of NAC solutions was added to each sample. Negative control (OmM) samples were similarly diluted with 0.5 mL of PBS in 15 mL blood. In three individuals, additional experiments were performed at concentrations of 7.5 mM, 20 mM and 40 mM. For all experiments, NAC was allowed to incubate in the blood at room temperature on a shaker for 30 minutes prior to testing.
To test the effect of N-acetylcysteine on reducing arterial thrombosis in human blood, whole blood was perfused collected from 10 healthy human subjects through a stenotic microfluidic channel coated with type I collagen. A constant pressure head of 16 mmHg was formed using an elevated upstream reservoir to create shear rates of ˜7,500 s-1 in the stenotic region and ˜800 s-1 in the rest of the channel. […]

For series [6] the following is noted: Zhou et al. 2015; cited from earlier work.
For series [7] the following is noted: Olsson et al. 1988; cited from earlier work.
Series [8] has as its system tail bleeding in mice. The experiment in a line: Tail bleeding model. Type of series: in vivo, mouse. Conditions: 400 mg/kg NAC; PBS 2.35 minutes, p=0.14. The protocol:
Bleeding times were assessed using the tail bleeding model described previously (Liu Y, Standardizing a simpler, more sensitive and accurate tail bleeding assay in mice. World J Exp Med. 2012;2:30). Briefly, mice were anesthetized and the distal 3 mm segment of the tail was transected and placed in a vial of warm saline. The injuries were monitored visually to determine the time it took for bleeding to cease.

Series [9] concerns platelet aggregation in human whole blood. The experiment in a line: Brightfield platelet intensity (lag time, rapid platelet accumulation rate) in the microfluidic model. The series is classed as cell-based. The protocol:
as §1, §2, §3
Brightfield measurements of platelet aggregation were used to establish whether the increase in occlusion time observed in 3 mM and 5 mM cases is primarily due to effects on initial platelet attachment (lag time) or the platelet accumulation rate (RPA). Lag time is defined as the time required for the average platelet intensity measurements to increase to 1% of their maximal value. Average lag times for 0 mM, 3 mM, 5 mM NAC experiments are 49 s, 65 s and 107 s, respectively. The small increases in lag time for 3 mM and 5 mM treatments cannot account for the 125-325 s increases in occlusion time seen in the 3 mM and 5 mM conditions. This is instead explained by a decrease in the rapid platelet accumulation rate, defined as the slope of the platelet intensity graph (FIG. 2B). […] The slope of the platelet intensity curve decreases as NAC concentration increases, with 10 mM NAC having a negligible slope. When the RPA rate for each individual is normalized to the individual's control RPA rate, the platelet aggregation rates for 3 mM, 5 mM and 10 mM are 0.66, 0.38 and −0.12, respectively (FIG. 2D, p<0.01 compared to control for all conditions). The small negative aggregation rate for 10 mM is an artifact caused by mixing of blood and PBS at the interface between the priming solution and the sample.

Series [10] relates to occlusive thrombi in common carotid artery of C57 mice. The series is described as follows: Murine modified-Folts model of arterial thrombosis (carotid stenosis and crush injury). Type of series: in vivo, mouse. The procedure: Formation of occlusive thrombi was measured using a murine Modified-Folts model (Kim D A, et al. Platelet α-granules are required for occlusive high-shear-rate thrombosis. Blood Adv. 2020;4:3258-3267). C57 mice were used under conditions approved by the university animal use and care committees. Following isolation of the common carotid artery, blood flow through the vessel was measured with a flow probe (Transonic Systems). A 6.0 silk suture was then tied around the vessel and tightened until the measured flow rate was approximately 50% of the initial value. This creates a stenosis region with high shear-rate at the apex. The artery is then crushed with forceps to damage the endothelial cells and expose collagen in the extracellular matrix.
In single injection experiments, 13 mice were treated with either 200 mg/kg NAC, 400 mg/kg NAC, or PBS. 100 μL of freshly prepared, neutralized NAC solution or vehicle was I.V. injected approximately 45 minutes prior to the crush injury.
For repeat injection experiments, mice were given either PBS, 200 mg/kg, or 400 mg/kg NAC through a 100 μL I.V. injection 6 hr prior to surgery. Mice were then given a second injection of PBS, 200 mg/kg, or 400 mg/kg NAC approximately 45 minutes prior to the crush injury. Additionally, 4 mice were given a dose of 400 mg/kg NAC through an 100 μL injection 6 hr prior to the surgery, followed by a second injection of PBS immediately prior to the crush injury.
Blood flow measurements were taken with a Transonic flow probe and acquired with Powerlab software (ADInstruments) (Id.). Time to initial occlusion is defined as the time between the crush injury and the first point where flow reaches approximately 0. After occlusion, if flow remains around 0 then the occlusion is characterized as stable. If instead the thrombus detaches and flow increases, the clot is labelled an unstable occlusion.
Statistical significance in time to initial occlusion was determined using unpaired student t-test (p <0.05). Differences in thrombus stability are determined using a Pearson's Chi-squared test (p <0.05).

The mark [11] stands for this setting: two doses of 400 mg/kg NAC 6 hrs apart.

Entries after “also recorded” stand apart in the source; their conditions may differ. Like-named read-outs stand apart in the source and are kept apart here.

For the molecule `CC(=O)Oc1ccccc1C(=O)O` [ASA], the Average bleeding time in the series on tail bleeding in mice [1] was 5.72 min.
Take “VWF: VWF (Humate) added at 19 IU/mL to 10 mM NAC treated blood”: in the series on human whole blood [2] (10 mM NAC + 19 IU vWF), the “Increase in lag time of recovery condition vs control (shift of control curve)” value is given as 76 s. The “Occlusive thrombus formation after VWF addition” value in the series on human whole blood [2] (19 IU/mL VWF added to blood treated with 10 mM NAC) is on record as “recover the ability to form rapid occlusive thrombi; also recorded: forms occlusive thrombi”.
As to `CC(=O)N[C@@H](CS)C(=O)O` [NAC, N-acetylcysteine], the “Mice that formed no thrombi and remained patent during the entire experiment” value in [3] is “Three of the 4”. Further, the “Plasma concentration at 6 hrs, of the initial concentration” value in series [4] is on record as under 0.05%. The Average occlusion time with human whole blood [5] (3 mM NAC) was 255 s; in the series on human whole blood [5] (5 mM NAC) it was 458 s. Also, the “Occlusion time, weak NAC responders” value with human whole blood [5] (3 mM NAC) came to 182 s; in the series on human whole blood [5] (5 mM NAC) it was 220 s. Also, the “Occlusion time, strong NAC responders” value in the series on human whole blood [5] (3 mM NAC) is recorded as 328 s; in the series with human whole blood [5] (5 mM NAC), 695 s. Moreover, the “Increase in occlusion time” value in the series with human whole blood [5] (3 mM and 5 mM conditions vs control) fell in the range of 125 to 325 s. Moreover, the “Samples not occluding within the time limit of the experiment” value in the series with human whole blood [5] (7.5 mM NAC, 3 individuals, 1000 s window) is listed as about 64%. Moreover, the Occlusion outcome is “results were mixed” with human whole blood [5] (7.5 mM NAC, 1000 s window); “did not occlude” with human whole blood [5] (20 mM NAC); “did not occlude” in the series with human whole blood [5] (40 mM NAC). Further, the “Inflection point of 4-parameter logistic fit of occlusion time vs NAC dose” value with human whole blood [5] (r^2 = 0.782) is reported as 5.6545 mM. In the series with human whole blood [5] (r^2 = 0.782), the “Logistic growth rate of 4-parameter logistic fit of occlusion time” value turned out to be 0.7145. The “Lower asymptote of 4-parameter logistic fit of occlusion time” value in the series on human whole blood [5] (r^2 = 0.782) was 118.5 s. Moreover, the “Upper asymptote of 4-parameter logistic fit of occlusion time” value in the series with human whole blood [5] (r^2 = 0.782) is recorded as 1028.4 s. The “Estimated elimination half-life in mouse plasma” value in series [6] was 34 min. In [7], the Oral bioavailability is given as 4-9%. Also, the Average bleeding time in the series with tail bleeding in mice [8] worked out at 2.76 min. Also, the “Platelet aggregation (RPA) rate normalized to the individual's control RPA rate” value in series [9] (3 mM NAC) is on record as 0.66; in [9] (5 mM NAC), 0.38; in [9] (10 mM NAC, small negative value said to be an artifact), −0.12. The “Reduction of the maximum growth rate of thrombi” value in series [9] (3 mM NAC) was 30%; in [9] (5 mM NAC), 60%. The “Average lag time (time to 1% of maximal platelet intensity)” value in series [9] (3 mM NAC, 0 mM 49 s) is listed as 65 s; in [9] (5 mM NAC, 0 mM 49 s), 107 s. For the same molecule, the Visible platelet aggregation entry in [9] (10 mM NAC, 1000 s of the experiment) is “no visible aggregation of platelets”; in [9] (20 mM NAC), “no visible platelet aggregation”; in series [9] (40 mM NAC), “no visible platelet aggregation”; in [9] (NAC concentrations over 10 mM), “no visible platelet aggregation”. Further, the “Lag time (time to 1% of maximal platelet intensity)” value in [9] (10 mM NAC, 0 mM 49 s) stood at 910 s. The Clot stability entry in [10] (200 mg/kg NAC single injection) is “recanalized completely; also recorded: more likely to be unstable and recanalize”; in [10] (400 mg/kg NAC 6 hrs prior to surgery, PBS immediately prior to crush injury) it was “formed unstable thrombi”; in [10] (setting [11]), “majority forming unstable thrombi”. The “Flow after recanalization, of the initial flow” value in series [10] (200 mg/kg NAC single injection) is on record as about 100%. Moreover, the Occlusion result in series [10] (400 mg/kg NAC I.V. single injection, N=3, 45 minutes of the experiment) is “no occlusion was observed; also recorded: completely prevented occlusion”. Also, the Observations following administration entry in [10] (NAC I.V., single injection experiments) was “lower basal blood flow and initial labored breathing”. The same molecule showed a Time to clotting in series [10] (setting [11]) of at most 10 min. In [10] (setting [11]), the “Tissue at crush injury site” value was “more severe tissue damage and hemorrhage”.

(Values after US20250367151A1, “ANTI-VWF THERAPEUTIC FOR PREVENTING ARTERIAL THROMBI” (GEORGIA TECH RESEARCH CORPORATION, priority 2022, published 2025).)
